Results as given in patent US7674795B2, “Fluorene derivatives, composition containing said derivatives and the use thereof” (Aventis Pharma SA, priority 2005, dated 2010).
Where a name gives a salt, the structure may show the parent alone.

Target: Hsp82 (Saccharomyces cerevisiae, UniProt P02829)
Test: PK/LDH enzyme coupling test of the ATPase activity of Hsp82 (NADH decrease at 340 nm)
Format: biochemical
Conditions: 1 μM Hsp82, 250 μM ATP, 37° C., pyruvate kinase/lactate dehydrogenase coupling, read-out: Hsp82 ATPase IC50
Description: The formation of ADP due to the ATPase activity of Hsp82 was utilized for developing another method of evaluating the enzymatic activity of this enzyme by application of an enzyme coupling system employing pyruvate kinase (PK) and lactate dehydrogenase (LDH). In this spectrophotometric method of the kinetic type, the PK catalyses the formation of ATP and of pyruvate starting from phosphoenol-pyruvate (PEP) and the ADP produced by HSP82. The pyruvate that formed, an LDH substrate, is then converted to lactate in the presence of NADH. In this case, the decrease in the concentration of NADH, measured by the decrease in absorbance at wavelength of 340 nm, is proportional to the concentration of ADP produced by HSP82. […] This mixture is preincubated at 37° C. for 30 min before adding 3.77 units of LDH and 3.77 units of PK. The reaction is started by adding the product to be evaluated, in variable concentrations, and of Hsp82, at a concentration of 1 μM. The enzymatic activity of Hsp82 is then measured continuously in a microplate reader at 37° C., at wavelength of 340 nm. The initial reaction rate is found by measuring the slope of the tangent at the origin of the recorded curve. The enzymatic activity is expressed as μM of ADP formed per minute. The effect of the various products tested is expressed as percentage of inhibition of ATPase activity, using the following codes: • A: […]

Chain of Hsp82 (P02829 whole entry): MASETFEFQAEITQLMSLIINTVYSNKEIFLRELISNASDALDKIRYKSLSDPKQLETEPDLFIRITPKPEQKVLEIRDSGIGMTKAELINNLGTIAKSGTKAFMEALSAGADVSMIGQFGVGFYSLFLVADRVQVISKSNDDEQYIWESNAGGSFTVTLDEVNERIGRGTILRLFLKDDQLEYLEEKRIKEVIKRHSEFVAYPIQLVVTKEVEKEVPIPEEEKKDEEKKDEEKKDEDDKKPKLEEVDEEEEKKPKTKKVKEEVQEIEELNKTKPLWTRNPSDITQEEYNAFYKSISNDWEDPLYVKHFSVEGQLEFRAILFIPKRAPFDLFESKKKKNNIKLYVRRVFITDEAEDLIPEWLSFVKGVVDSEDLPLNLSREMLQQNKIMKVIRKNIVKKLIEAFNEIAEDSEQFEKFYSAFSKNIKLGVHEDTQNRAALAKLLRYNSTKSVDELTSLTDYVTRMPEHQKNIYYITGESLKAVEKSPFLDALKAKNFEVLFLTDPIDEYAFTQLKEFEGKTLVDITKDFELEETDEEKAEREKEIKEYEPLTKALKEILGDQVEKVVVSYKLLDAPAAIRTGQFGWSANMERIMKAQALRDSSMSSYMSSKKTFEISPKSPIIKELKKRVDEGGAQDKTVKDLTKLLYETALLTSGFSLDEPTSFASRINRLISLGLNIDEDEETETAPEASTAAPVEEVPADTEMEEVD

SMILES	IC50
O=C(NC1c2ccccc2-c2c(-c3nc4cccnc4[nH]3)cccc21)c1ccncc1 (racemic) [Example 110, N-[4-(3H-imidazo[4,5-b]pyridin-2-yl)-9H-fluoren-9(R,S)-yl]-isonicotinamide]	10 to 100 µM
O=C(NC1c2ccccc2-c2c(-c3nc4ccncc4[nH]3)cccc21)c1ccnc(O)n1 (centres unmarked) [Example 89, [4-(3H-imidazo[4,5-c]pyridin-2-yl)-9H-fluoren-9-yl]amide of 2-hydroxypyrimidine-4-carboxylic acid]	1 to 10 µM
O=C(NC1c2ccccc2-c2c(-c3nc4ccncc4[nH]3)cccc21)c1ccnc(C(=O)O)c1 (racemic) [Example 109, 4-[4-(3H-imidazo[4,5-c]pyridin-2-yl)-9H-fluoren-9(R,S)-ylcarbamoyl]-pyridine-2-carboxylic acid]	10 to 100 µM
O=C(NC1c2ccccc2-c2c(-c3nc4ccncc4[nH]3)cccc21)c1ccnc2[nH]ccc12 (racemic) [Example 92, [4-(3H-imidazo[4,5-c]pyridin-2-yl)-9H-fluoren-9(R,S)-yl]amide of 1H-pyrrolo[2,3-b]pyridine-4-carboxylic acid]	< 1 µM
O=C(NC1c2ccccc2-c2c(-c3nc4ccncc4[nH]3)cccc21)c1ccnc(N2CCCC2)c1 (racemic) [Example 120, N-[4-(3H-imidazo[4,5-c]pyridin-2-yl)-9H-fluoren-9(R,S)-yl]-2-pyrrolidin-1-yl-isonicotinamide]	1 to 10 µM
O=C(O)C1c2ccccc2-c2c(-c3nc4cnccc4[nH]3)cccc21 (racemic) [Example 29, hydrochloride of 4-(1H-imidazo[4,5-c]pyridin-2-yl)-9H-fluorene-9(R,S)-carboxylic acid]	10 to 100 µM
O=C(OC1c2ccccc2-c2c(-c3nc4ccncc4[nH]3)cccc21)c1ccncc1 (racemic) [Example 122, 4-(3H-imidazo[4,5-c]pyridin-2-yl)-9H-fluoren-9(R,S)-yl ester of isonicotinic acid]	< 1 µM
CCc1cc(C(=O)NC2c3ccccc3-c3c(-c4nc5ccncc5[nH]4)cccc32)ccn1 (racemic) [Example 82, 2-ethyl-N-[4-(3H-imidazo[4,5-c]pyridin-2-yl)-9H-fluoren-9(R,S)-yl]-isonicotinamide]	< 1 µM
O=C(NC1c2ccccc2-c2c(-c3nc4ccncc4[nH]3)cccc21)c1cccc2cnccc12 (racemic) [Example 35, [4-(3H-imidazo[4,5-c]pyridin-2-yl)-9H-fluoren-9(R,S)-yl]amide of isoquinoline-5-carboxylic acid]	10 to 100 µM
O=C(NC1c2ccccc2-c2c(-c3nc4cnccc4[nH]3)cccc21)c1ccc[n+]([O-])c1 (racemic) [Example 56, N-[4-(3H-imidazo[4,5-c]pyridin-2-yl)-9H-fluoren-9(R,S)-yl]-1-oxynicotinamide]	1 to 10 µM
O=C(NC1c2ccccc2-c2c(-c3nc4ccncc4[nH]3)cccc21)c1ccnnc1 (centres unmarked) [Example 86, [4-(3H-imidazo[4,5-c]pyridin-2-yl)-9H-fluoren-9-yl]amide of pyridazine-4-carboxylic acid]	1 to 10 µM
O=C(NC1c2ccccc2-c2c(-c3nc4ccncc4[nH]3)cccc21)c1cc(Cl)cc2[nH]cnc12 (racemic) [Example 44, [4-(3H-imidazo[4,5-c]pyridin-2-yl)-9H-fluoren-9(R,S)-yl]amide of 6-chloro-1H-benzimidazole-4-carboxylic acid]	1 to 10 µM
CC(C)(C)OC(=O)N1CCC(C(=O)NC2c3ccccc3-c3c(-c4nc5ccncc5[nH]4)cccc32)CC1 (racemic) [Example 33, tert-butyl ester of 4-[4-(3H-imidazo[4,5-c]pyridin-2-yl)-9H-fluoren-9(R,S)-ylcarbamoyl]-piperidine-1-carboxylic acid]	1 to 10 µM
O=C(NC1c2ccccc2-c2c(-c3nc4ccc(O)cc4[nH]3)cccc21)c1ccncc1 (racemic) [Example 117, N-[4-(6-hydroxy-1H-benzimidazol-2-yl)-9H-fluoren-9(R,S)-yl]-isonicotinamide]	1 to 10 µM
